In ChEMBL document CHEMBL5696442, “Discovery of type II inhibitors of TGFβ-activated kinase 1 (TAK1) and mitogen-activated protein kinase kinase kinase kinase 2 (MAP4K2)” (J Med Chem, 2015) one finds residual activity and inhibition data, which are given here for 2 compounds.

As a reminder, the residual activity is the signal under treatment as a percentage of the control signal. One may read the inhibition as the drop in the measured response relative to a control, in per cent.

Active and inactive are the calls of the source. The rule behind the calls is not given here.

Experiment [1] addresses Serine/threonine-protein kinase/endoribonuclease IRE1 (Homo sapiens) (UniProt O75460). Put plainly: Inhibition of ERN1 (unknown origin) at 1 uM by Ambit Kinomescan binding assay relative to control; values are per cent of control.
Experiment [2] has as its target Ephrin type-A receptor 7 (Homo sapiens) (UniProt Q15375). Put plainly: Inhibition of EPHA7 (unknown origin) at 1 uM by Ambit Kinomescan binding assay relative to control.
Experiment [3] deals with T1, Tyrosine-protein kinase ABL1 (Homo sapiens, UniProt P00519). Put plainly: Inhibition of ABL Lys1 labeling site in human A-375 cells at 0.5 uM by KiNativ Profiling analysis relative to control. It counts as cell-based.
T1 sequence (P00519 whole entry): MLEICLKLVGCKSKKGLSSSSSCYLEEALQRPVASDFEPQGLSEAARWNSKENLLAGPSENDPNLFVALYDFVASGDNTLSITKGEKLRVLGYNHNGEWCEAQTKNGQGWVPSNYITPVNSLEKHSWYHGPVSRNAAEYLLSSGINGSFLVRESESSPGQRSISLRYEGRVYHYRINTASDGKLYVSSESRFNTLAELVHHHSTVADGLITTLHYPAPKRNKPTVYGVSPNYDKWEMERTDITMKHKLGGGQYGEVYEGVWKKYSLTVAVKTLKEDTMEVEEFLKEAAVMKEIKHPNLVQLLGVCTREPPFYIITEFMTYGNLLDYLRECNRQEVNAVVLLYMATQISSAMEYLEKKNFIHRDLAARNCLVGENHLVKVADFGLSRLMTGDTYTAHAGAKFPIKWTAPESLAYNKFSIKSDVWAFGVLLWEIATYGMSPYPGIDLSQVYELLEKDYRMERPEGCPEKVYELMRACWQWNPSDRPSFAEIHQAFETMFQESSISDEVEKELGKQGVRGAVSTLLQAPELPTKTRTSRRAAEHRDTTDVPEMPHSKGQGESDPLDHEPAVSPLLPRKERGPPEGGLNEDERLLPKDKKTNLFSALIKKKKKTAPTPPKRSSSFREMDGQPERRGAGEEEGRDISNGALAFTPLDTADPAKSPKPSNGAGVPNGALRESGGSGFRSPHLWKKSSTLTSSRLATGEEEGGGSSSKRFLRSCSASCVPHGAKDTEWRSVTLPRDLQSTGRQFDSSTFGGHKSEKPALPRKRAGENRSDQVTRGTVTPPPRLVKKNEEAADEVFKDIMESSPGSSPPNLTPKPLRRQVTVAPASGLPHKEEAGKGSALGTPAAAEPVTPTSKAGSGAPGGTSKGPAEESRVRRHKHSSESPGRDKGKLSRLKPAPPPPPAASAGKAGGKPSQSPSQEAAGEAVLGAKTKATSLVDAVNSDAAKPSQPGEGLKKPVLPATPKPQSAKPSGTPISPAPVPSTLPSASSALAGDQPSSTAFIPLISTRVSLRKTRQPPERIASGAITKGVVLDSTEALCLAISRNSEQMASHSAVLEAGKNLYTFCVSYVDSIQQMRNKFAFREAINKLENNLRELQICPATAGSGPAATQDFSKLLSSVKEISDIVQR
Experiment [4] concerns the target Serine/threonine-protein kinase/endoribonuclease IRE1 (Homo sapiens) (UniProt O75460). Put plainly: Inhibition of IRE1 Lys2 labeling site in human A-375 cells at 5 uM by KiNativ Profiling analysis relative to control. It counts as cell-based.
In experiment [5] the target is T2, Mitogen-activated protein kinase kinase kinase kinase 2 (Homo sapiens) (UniProt Q12851).
T2 sequence (whole entry): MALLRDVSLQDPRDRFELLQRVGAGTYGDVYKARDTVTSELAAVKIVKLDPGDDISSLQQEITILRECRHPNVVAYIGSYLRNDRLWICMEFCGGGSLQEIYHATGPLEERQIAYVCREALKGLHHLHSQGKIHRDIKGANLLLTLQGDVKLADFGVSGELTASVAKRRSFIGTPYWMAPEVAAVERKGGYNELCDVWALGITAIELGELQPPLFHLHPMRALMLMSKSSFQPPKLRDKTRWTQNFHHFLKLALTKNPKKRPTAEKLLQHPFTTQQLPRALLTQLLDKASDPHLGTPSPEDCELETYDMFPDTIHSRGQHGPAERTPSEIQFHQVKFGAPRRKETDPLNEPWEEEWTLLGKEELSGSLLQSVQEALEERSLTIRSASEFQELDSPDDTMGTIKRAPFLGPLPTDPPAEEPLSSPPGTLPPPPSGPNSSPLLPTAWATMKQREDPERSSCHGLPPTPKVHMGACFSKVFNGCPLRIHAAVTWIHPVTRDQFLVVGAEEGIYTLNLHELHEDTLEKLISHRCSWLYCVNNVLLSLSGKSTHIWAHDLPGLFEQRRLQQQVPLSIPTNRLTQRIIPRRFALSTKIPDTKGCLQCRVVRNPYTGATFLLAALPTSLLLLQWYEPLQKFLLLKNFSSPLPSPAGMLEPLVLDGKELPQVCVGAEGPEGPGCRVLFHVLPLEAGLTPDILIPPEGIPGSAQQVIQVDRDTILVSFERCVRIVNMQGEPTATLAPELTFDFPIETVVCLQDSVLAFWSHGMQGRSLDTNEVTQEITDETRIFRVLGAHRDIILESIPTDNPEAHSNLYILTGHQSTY
Put plainly: Inhibition of MAP4K2 (GCK) Lys2 labeling site in human A-375 cells at 0.5 uM by KiNativ Profiling analysis relative to control. It counts as cell-based.

The target of experiment [6] is Activin receptor type-1B (Homo sapiens) (UniProt P36896). Put plainly: Inhibition of ACVR1B (unknown origin) at 10 uM by Ambit Kinomescan binding assay.
Sequence of Activin receptor type-1B (Homo sapiens) (P36896 whole entry): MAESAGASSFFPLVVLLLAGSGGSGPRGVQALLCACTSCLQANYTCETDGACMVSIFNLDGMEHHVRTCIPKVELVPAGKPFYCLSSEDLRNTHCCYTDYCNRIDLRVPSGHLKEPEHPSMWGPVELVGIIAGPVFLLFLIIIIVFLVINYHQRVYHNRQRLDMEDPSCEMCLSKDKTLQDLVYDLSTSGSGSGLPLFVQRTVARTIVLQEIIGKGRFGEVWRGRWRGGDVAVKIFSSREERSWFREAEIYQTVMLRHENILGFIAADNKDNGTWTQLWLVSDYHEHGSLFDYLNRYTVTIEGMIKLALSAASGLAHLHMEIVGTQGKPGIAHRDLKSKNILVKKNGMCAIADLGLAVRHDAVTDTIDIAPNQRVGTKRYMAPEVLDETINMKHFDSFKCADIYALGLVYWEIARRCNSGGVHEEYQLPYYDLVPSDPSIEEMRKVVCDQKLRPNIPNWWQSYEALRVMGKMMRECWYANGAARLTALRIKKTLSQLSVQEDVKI
In experiment [7] the target is T3, Serine/threonine-protein kinase Nek9 (Homo sapiens) (UniProt Q8TD19).
T3 sequence (whole entry): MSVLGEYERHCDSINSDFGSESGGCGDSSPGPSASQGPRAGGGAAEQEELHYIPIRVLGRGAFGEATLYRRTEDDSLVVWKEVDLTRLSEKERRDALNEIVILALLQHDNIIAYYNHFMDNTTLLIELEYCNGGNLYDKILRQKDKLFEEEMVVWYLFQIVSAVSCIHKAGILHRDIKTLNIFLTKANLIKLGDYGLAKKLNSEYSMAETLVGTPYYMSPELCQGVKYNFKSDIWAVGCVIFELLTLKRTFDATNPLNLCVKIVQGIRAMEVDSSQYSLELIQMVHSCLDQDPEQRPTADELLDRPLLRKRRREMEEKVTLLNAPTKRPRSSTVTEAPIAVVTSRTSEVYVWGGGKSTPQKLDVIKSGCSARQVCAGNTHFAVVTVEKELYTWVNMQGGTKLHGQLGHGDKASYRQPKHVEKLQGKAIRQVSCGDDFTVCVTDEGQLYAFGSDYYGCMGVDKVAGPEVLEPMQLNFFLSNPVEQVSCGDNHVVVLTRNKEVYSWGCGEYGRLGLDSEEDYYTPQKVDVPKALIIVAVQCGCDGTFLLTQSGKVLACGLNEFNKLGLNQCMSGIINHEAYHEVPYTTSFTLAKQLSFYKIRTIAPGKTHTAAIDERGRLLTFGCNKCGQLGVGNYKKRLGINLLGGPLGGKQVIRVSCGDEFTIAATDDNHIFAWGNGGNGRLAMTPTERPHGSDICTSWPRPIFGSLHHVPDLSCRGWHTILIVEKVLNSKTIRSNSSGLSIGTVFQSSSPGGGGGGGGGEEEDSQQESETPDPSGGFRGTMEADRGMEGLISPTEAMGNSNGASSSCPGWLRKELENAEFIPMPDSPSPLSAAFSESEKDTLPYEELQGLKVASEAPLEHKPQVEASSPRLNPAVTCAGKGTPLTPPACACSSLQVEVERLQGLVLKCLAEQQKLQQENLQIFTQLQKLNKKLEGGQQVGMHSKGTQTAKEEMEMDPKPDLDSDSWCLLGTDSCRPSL
Put plainly: Inhibition of NEK9 (unknown origin) at 10 uM by Ambit Kinomescan binding assay.

Experiment [8] addresses T4, Dual specificity mitogen-activated protein kinase kinase 4 (Homo sapiens) (UniProt P45985).
T4 sequence (whole entry): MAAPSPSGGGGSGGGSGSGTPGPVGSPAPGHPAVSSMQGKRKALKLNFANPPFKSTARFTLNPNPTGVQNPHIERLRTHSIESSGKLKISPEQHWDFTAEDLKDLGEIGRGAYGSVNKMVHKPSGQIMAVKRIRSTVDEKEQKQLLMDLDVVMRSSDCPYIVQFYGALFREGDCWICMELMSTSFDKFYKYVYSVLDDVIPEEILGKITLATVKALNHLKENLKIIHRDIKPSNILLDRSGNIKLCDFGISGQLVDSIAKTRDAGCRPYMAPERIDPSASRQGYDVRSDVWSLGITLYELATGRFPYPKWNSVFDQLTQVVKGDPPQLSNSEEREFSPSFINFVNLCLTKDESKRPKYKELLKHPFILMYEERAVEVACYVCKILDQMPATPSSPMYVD
Put plainly: Inhibition of MAP2K4 K2 labeling site harbouring IIHRDIKPSNILLDR in human Huh-7 cells at 1 uM by KiNativ Profiling analysis relative to control. It counts as cell-based.

Experiment [9] concerns the target Serine/threonine-protein kinase PAK 5 (Homo sapiens) (UniProt Q9P286). Put plainly: Inhibition of PAK7 (unknown origin) at 10 uM by Ambit Kinomescan binding assay.
In experiment [10] the target is T1, Tyrosine-protein kinase ABL1. Put plainly: Inhibition of ABL Lys1 labeling site in human A-375 cells at 5 uM by KiNativ Profiling analysis relative to control. It counts as cell-based.

Sequence of Serine/threonine-protein kinase/endoribonuclease IRE1 (Homo sapiens) (O75460 19-977 limits assumed): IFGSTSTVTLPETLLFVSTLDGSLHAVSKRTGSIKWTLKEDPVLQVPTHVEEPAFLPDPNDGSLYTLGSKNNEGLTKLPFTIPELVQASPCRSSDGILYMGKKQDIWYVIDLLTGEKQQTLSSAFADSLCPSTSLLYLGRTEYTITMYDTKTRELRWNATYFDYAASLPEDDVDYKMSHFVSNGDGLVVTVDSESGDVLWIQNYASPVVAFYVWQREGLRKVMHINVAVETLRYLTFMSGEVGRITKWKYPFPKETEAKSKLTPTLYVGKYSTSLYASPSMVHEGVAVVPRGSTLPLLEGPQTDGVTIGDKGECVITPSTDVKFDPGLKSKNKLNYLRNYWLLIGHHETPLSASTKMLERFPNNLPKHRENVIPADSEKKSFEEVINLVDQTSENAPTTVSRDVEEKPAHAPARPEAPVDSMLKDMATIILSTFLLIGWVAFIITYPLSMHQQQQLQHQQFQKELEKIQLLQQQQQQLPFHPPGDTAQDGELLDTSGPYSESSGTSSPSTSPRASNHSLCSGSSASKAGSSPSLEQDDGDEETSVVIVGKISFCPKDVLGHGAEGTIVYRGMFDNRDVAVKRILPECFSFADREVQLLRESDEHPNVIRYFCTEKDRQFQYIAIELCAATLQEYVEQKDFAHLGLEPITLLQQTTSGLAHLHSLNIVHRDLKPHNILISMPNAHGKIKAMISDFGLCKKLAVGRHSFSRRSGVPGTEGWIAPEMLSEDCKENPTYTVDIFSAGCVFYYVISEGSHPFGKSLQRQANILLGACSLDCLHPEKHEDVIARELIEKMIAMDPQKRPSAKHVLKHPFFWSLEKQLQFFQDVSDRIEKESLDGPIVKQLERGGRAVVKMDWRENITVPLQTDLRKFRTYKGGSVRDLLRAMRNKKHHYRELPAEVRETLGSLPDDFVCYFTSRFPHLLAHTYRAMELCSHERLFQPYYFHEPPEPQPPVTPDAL
Sequence of Ephrin type-A receptor 7 (Homo sapiens) (Q15375 28-998 limits assumed): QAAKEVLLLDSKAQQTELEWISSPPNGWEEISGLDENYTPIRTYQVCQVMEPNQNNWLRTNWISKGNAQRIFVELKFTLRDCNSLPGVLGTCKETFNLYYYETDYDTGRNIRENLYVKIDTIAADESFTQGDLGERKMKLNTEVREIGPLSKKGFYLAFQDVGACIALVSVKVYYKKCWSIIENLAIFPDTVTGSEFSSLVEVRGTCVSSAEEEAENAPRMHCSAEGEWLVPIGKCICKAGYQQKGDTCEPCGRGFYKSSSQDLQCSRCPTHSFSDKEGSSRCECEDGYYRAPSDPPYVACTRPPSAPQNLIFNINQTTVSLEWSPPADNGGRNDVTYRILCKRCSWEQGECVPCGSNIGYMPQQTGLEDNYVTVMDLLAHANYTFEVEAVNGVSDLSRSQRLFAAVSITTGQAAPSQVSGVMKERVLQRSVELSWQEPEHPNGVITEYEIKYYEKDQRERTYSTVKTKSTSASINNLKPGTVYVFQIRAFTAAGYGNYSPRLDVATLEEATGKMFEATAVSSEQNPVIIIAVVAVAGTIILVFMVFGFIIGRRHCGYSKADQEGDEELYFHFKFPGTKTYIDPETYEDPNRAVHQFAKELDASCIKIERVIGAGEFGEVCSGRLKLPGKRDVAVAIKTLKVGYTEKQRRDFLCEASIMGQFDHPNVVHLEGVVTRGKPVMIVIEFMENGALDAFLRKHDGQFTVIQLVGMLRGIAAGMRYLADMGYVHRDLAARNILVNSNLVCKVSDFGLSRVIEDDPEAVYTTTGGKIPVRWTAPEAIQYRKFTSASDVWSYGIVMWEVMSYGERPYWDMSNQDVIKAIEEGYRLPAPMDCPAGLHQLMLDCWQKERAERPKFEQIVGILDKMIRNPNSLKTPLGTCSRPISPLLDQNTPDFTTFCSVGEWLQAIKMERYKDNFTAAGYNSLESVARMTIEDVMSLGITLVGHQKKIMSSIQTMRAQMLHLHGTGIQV
Sequence of Serine/threonine-protein kinase PAK 5 (Homo sapiens) (Q9P286 whole entry, looked up): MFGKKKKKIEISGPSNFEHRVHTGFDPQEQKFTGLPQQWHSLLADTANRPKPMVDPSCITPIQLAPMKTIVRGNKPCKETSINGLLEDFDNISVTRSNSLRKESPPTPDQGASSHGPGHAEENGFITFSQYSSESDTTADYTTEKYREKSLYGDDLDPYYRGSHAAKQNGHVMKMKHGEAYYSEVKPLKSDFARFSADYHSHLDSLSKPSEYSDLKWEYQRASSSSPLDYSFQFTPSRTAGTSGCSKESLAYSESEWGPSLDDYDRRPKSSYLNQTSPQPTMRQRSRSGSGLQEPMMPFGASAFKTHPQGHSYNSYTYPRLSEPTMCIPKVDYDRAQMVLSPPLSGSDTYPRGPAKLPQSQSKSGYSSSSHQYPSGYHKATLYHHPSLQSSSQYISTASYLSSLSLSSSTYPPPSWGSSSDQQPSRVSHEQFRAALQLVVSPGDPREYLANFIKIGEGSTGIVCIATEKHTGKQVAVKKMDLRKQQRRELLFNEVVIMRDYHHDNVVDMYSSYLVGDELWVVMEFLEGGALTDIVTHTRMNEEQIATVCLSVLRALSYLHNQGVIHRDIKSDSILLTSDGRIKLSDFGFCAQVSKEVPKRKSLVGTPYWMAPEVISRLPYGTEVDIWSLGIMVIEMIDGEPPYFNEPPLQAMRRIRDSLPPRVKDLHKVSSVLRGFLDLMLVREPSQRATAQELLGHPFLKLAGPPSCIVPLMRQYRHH

As for `CCN1CCN(Cc2ccc(NC(=O)c3ccc(C)c(/C=C/c4cnc5[nH]ccc5c4OC)c3)cc2C(F)(F)F)CC1`, the residual activity in experiment [1] turned out to be 100%. The inhibition in experiment [2] worked out at 78%.
Take `CCN1CCN(Cc2ccc(NC(=O)c3ccc(C)c(Oc4ccnc5[nH]ccc45)c3)cc2C(F)(F)F)CC1`: the inhibition was 85.5% in experiment [3]; -5.7% in experiment [4]; 98% in experiment [5]; -0.9% in [8]; 86.8% in [10]. Further, the inhibition result in experiment [6], in [7] and in [9] was “inactive” in each case.
